This is an account of results in US6194408A, “Triazineone compounds for treating diseases due to Sarcocystis, Neospora and Toxoplasma” (Bayer Corporation, priority 1998, dated 2001).

A short description of data set [1]: Pharmacokinetics of a single oral dose of Toltrazuril in horses (blood levels). The data set is classed as in vivo. Conditions: horses receiving single oral 10 mg/kg Toltrazuril. How it is done: A pharmacokinetic study was conducted in horses comparing blood levels of Toltrazuril, Ponazuril and Toltrazuril Sulfoxide at various times post a single dose of Toltrazuril. All horses received a single dose of 10 mg/kg, which was administered orally as a suspension. Blood samples were drawn at the time of treatment (0) and at 0.25, 0.5, 1, 2, 4, 6, 12, 24, 48 and 72 hours post treatment. […] This was an indication that Ponazuril, alone, would produce acceptable blood levels that are envisioned to pass the blood-brain barrier, a characteristic required to treat neurological diseases such as those caused by Sarcocystis neurona, Toxoplasma gondii, Neospora caninum and Neospora heugesi.

Data set [2] has as its system EPM-Infected Horses. As to the kind of experiment: Response of EPM-infected horses to treatment (clinical score). The class given is in vivo. As to the method:
The compound was formulated into a paste using Ponazuril as a 15% active ingredient (a.i.) as described in EXAMPLE 1. It was administered to horses already diagnosed with EPM once a day for 28 days at a dose rate between 2.5 mg/Kg and 10 mg/Kg.
Naturally occurring clinical cases of EPM were well characterized by signalment and laboratory diagnosis. The diagnosis used for incorporation of EPM-positive horses into this trial was as follows: Confirmed asymmetrical neurological deficit as determined by a standardized neurological examination, to include radiography, indicative of EPM; Positive Western Blot for Sarcocystis neurona IgG; Red Blood Cell count below 500 cells/mL; CSF indices--Total Protein <90, IgG index >0.3. AQ quotient <2.2.
Additional requirements were that the horses were not suffering from diseases other than EPM. Therefore, they had to meet the following criteria: Negative CSF (<1:4) for EHV-1; Normal serum values for Vitamin E (.2.0 μg/mL); Lack of seizure disorders; Lack of behavior disorders.
Diagnosed horses were randomly assigned to groups. Group 1 horses received the paste formulation daily at a dose rate of 5mg/Kg whereas Group 2 horses received the paste formulation daily at a dose rate of 10 mg/Kg. The treatment dose was based on body weight. The horses were evaluated for a period of 90 days (approximately 60 days after discontinuation of treatment) in order to determine that treatment was indeed effective. The response to treatment was scored using the following system: 1) 0=complete success-clinically normal with a negative CSF; 2) 1=Deficit just detected at a normal gait; 3) 2=Deficit easily detected and exaggerated by backing, turning, swaying, jaw loin pressure and neck extension; 4) 3=Deficit very prominent on walking, Facial turning, loin pressure or neck extension; 5) 4=Stumbling, tripping and falling down spontaneously; 6) 5=Recumbent, unable to rise. An improvement of one (1) unit in the score was considered a significant improvement.

Data set [3] concerns Sarcocystis neurona. Briefly: Microtiter Monolayer Disruption Assay (MMDA), inhibition of BT cell destruction by S. neurona. The class given is cell-based. To be noted: 10 μg/mL, read-out: Percent Inhibition of Cell Destruction. As to the method: (§1) In order to determine the scope of protection provided by Ponazuril, in vitro testing was conducted. The following strains of parasites were evaluated for their sensitivity to this compound: Strain SN3 of Sarcocystis neurona; strain SF1 of Sarcocystis falcatula; strain RH of Toxoplasma gondii; and the NC-1 strain of Neospora caninum. Ponazuril was tested at concentrations (1 μg/mL and 10 μg/mL).
(§2) Bovine turbinate (BT) cells were used for all in vitro studies. Cells were grown to confluency in 25 cm^2 flasks in RMPI 1640 media supplemented with 10% v/v fetal bovine serum (FBS), 100 Units penicillin (G/mL), […] and 5×10^-2 mM 2-mercpatoethanol. After cell confluence was obtained, cells were maintained in the same media with reduced FBS (2% v/v). Cell cultures were incubated at 37° C. in a humidified atmosphere containing 5% carbon dioxide and 95% air. […]
(§3) The assay used to determine the effectiveness of Ponazuril was the Microtiter Monolayer Disruption Assay (MMDA). […] Flat bottomed 96-well microtiter plates were inoculated with BT cells and the resulting monolayers were used to determine the effects of Toltrazuril and Ponazuril on merozoite production as measured by CPE (plaque formation). […]

In data set [4] the test system is Sarcocystis falcatula. As to the kind of experiment: Microtiter Monolayer Disruption Assay (MMDA), inhibition of BT cell destruction by S. falcatula. The data set is classed as cell-based. Conditions: 1 μg/mL, read-out: Percent Inhibition of Cell Destruction. As to the method:
as §1, §2, §3

Data set [5] has as its system Neospora caninum NC-1. Briefly: Microtiter Monolayer Disruption Assay (MMDA), inhibition of BT cell destruction by N. caninum. To be noted: 1.0 μg/mL, read-out: Percent Inhibition of Cell Destruction. The class given is cell-based. As to the method:
as §1, §2, §3

Data set [6] deals with Toxoplasma gondii. Briefly: Microtiter Monolayer Disruption Assay (MMDA), inhibition of BT cell destruction by T. gondii. The data set is classed as cell-based. To be noted: 1.0 μg/mL, read-out: Percent Inhibition of Cell Destruction. How it is done:
as §1, §2, §3

For data set [7], the system named is Bovine turbinate (BT) cells. The class given is cell-based. Conditions: uninfected agent treated BT cells. How it is done:
Bovine turbinate (BT) cells were used for all in vitro studies. Cells were grown to confluency in 25 cm^2 flasks in RMPI 1640 media supplemented with 10% v/v fetal bovine serum (FBS), 100 Units penicillin (G/mL), […] and 5×10^-2 mM 2-mercpatoethanol. After cell confluence was obtained, cells were maintained in the same media with reduced FBS (2% v/v). Cell cultures were incubated at 37° C. in a humidified atmosphere containing 5% carbon dioxide and 95% air.
The assay used to determine the effectiveness of Ponazuril was the Microtiter Monolayer Disruption Assay (MMDA). This assay was used to determine if the parasites or compound were toxic for BT cells. Flat bottomed 96-well microtiter plates were inoculated with BT cells and the resulting monolayers were used to determine the effects of Toltrazuril and Ponazuril on merozoite production as measured by CPE (plaque formation). […]

A short description of data set [8]: Cerebral spinal fluid drug levels / passage of blood-brain barrier after repeated doses of Toltrazuril in horses. The data set is classed as in vivo. To be noted: horses. As to the method: This experiment was conducted in order to determine whether triazineones such as Toltrazuril can pass the blood-brain barrier. Normal horses were divided into three groups of three horses per group. Group 1 horses received Toltrazuril administered orally as a 5% suspension at a dose level of 2.5 mg/Kg. Group 2 horses received Toltrazuril administered orally as a 5% suspension at a dose level of 5.0 mg/Kg. Group 3 horses received Toltrazuril administered orally as a 5% suspension at a dose level of 7.5 mg/Kg. The dosing was repeated daily for 10 days. Blood samples were drawn at 48, 96 and 240 hours and the concentration of Toltrazuril, Toltrazuril sulfoxide and Ponazuril in the serum was measured. Ten days after the start of the treatment (Day 10), a sample of cerebral spinal fluid was removed from each horse and the concentrations of Toltrazuril, Toltrazuril Sulfoxide and Ponazuril were again measured in these samples. The concentrations of Toltrazuril, Toltrazuril Sulfoxide and Ponazuril in the serum and cerebral spinal fluid are reported in TABLES 5a and 5b.

Data set [9] can be described thus: Safety and effectiveness of a single high dose. To be noted: doses as high as 100 mg/Kg body weight. The class given is in vivo. How it is done: For the single high dose treatment the triazineone is administered in pharmaceutically effective amounts that are greater than 10 mg/Kg and up to about 100 mg/Kg. It is a distinct feature of the invention the compounds of this invention can be non-toxic, thus they can be administrated at high dose levels. The advantage of the high dose administration resides in the fact repeated doses are not required.

The mark [10] stands for this setting: after treatment with Toltrazuril.

Regarding `Cc1cc(-n2c(=O)[nH]c(=O)n(C)c2=O)ccc1Oc1ccc(S(=O)(=O)C(F)(F)F)cc1` [Ponazuril], the “Levels in serum / bloodstream (in words)” value in data set [1] is “relatively high levels”. The “Horses demonstrating acceptable improvement” value in data set [2] (5 mg/Kg dose, eight of nine horses) came to 88.9%. For the same compound, the TOTAL clinical score was 17 in data set [2] (5 mg/Kg group, Day 0 (baseline)); 13 in data set [2] (5 mg/Kg group, Day 28); 6 in [2] (5 mg/Kg group, Day 90); 19 in data set [2] (10 mg/Kg group, Day 0 (baseline)); 15 in data set [2] (10 mg/Kg group, Day 28); 4 in data set [2] (10 mg/Kg group, Day 90). Also, in [2] (10 mg/Kg group, 28 days, by day 90 post start of treatment), the “Horses showing significant improvement in clinical score” value came out at 100%. The “Improvement in total scores, Group 1 (5 mg/Kg) versus Group 2 (10 mg/Kg)” value in [2] (EPM horses, 5 vs 10 mg/Kg) is reported as “approximately equivalent”. Also, in data set [2] (at either 5 mg/Kg or 10 mg/Kg, horses), the “Effectiveness for active treatment of EPM” value is “effective for the active treatment of EPM in horses”. The inhibition (in general, the relative decrease from the control value, in per cent) at 10 µg/mL in [3] was determined as 100%. Moreover, the inhibition at 1 µg/mL in [4], in [5] and in data set [6] was 100% throughout. Besides, the “Toxicity to BT cells” value in [7] is recorded as “not toxic to the BT cells”. Moreover, in data set [8] (after oral Toltrazuril daily for 10 days), the “Crossing of the blood-brain barrier” value is “effectively cross the blood-brain barrier”. Further, the “Concentration in cerebral spinal fluid relative to that of Toltrazuril” value in [8] (setting [10]) is on record as “essentially equivalent to the concentration of Toltrazuril itself”. For the same compound, in data set [8] (setting [10]), the “Crossing of the blood-brain barrier compared with Toltrazuril” value was “crosses this barrier more effectively than does Toltrazuril”. The Safety and effectiveness entry in data set [9] is “both safe and effective”.
